Measured values taken from US20040106626A1, “6-Membered unsaturated heterocyclic compounds useful for selective inhibition of the coagulation cascade” (Pharmacia Corporation, priority 2001, published 2004).
Counter-ions that a name gives are not always drawn.

Legend:
Format in all cases: biochemical
[1] = target: T1, Human factor Xa (Homo sapiens, UniProt P00742); test: Xa assay (chromogenic substrate S-2765); settings: reported only as less than or greater than 30 uM; read-out: Factor Xa (II) IC50
T1 construct: purchased Enzyme Research Laboratories, South Bend Ind
Procedure: Human factor Xa (0.3 nM) and 0.15 mM -a-Benzyloxycarbonyl-D-arginyl-L-glycyl-L-arginine-p-nitroaniline-dihydrochloride (S-2765) are added to a 96-well assay plate containing either inhibitor or buffer (50 mM Tris-HCl, pH 8.0, 100 mM NaCl, 0.1% BSA). The reaction, in a final volume of 100 ul is measured immediately at 405 nm to determine background absorbance. The plate is incubated at room temperature for 60 min, at which time the rate of hydrolysis of the substrate is measured by monitoring the reaction at 405 nm for the release of p-nitroaniline. Percent inhibition of Xa activity is calculated from OD405 nm value from the experimental and control sample.
Recombinant soluble TF, consisting of amino acids 1-219 of the mature protein sequence was expressed in E. coli and purified using a Mono Q Sepharose FPLC. Recombinant human VIIa was purchased from American Diagnostica, Greenwich CT and chromogenic substrate N-methylsulfonyl-D-phe-gly-arg-p-nitroaniline was prepared by American Peptide Company, Inc., Sunnyvale, Calif. Factor Xa was obtained from Enzyme Research Laboratories, South Bend Ind., thrombin from Calbiochem, La Jolla, Calif., and trypsin and L-BAPNA from Sigma, St. Louis Mo. The chromogenic substrates S-2765 and S-2238 were purchased from Chromogenix, Sweden.

[2] = target: T2, recombinant soluble tissue factor and recombinant human factor VIIa (TF-VIIa) (Homo sapiens, UniProt P08709); test: TF-VIIa assay (chromogenic substrate hydrolysis); settings: reported only as less than or greater than 0.1 uM
T2 construct: conversion of coagulation factor VII to VIIa by factor Xa; purchased American Diagnostica, Greenwich CT; host or cells: soluble TF made in house in E. coli
Procedure: In this assay 100 nM recombinant soluble tissue factor and 2 nM recombinant human factor VIIa are added to a 96-well assay plate containing 0.4 mM of the substrate, N-methylsulfonyl-D-phe-gly-arg-p-nitroaniline and either inhibitor or buffer (5 mM CaCl2, 50 mM Tris-HCl, pH 8.0, 100 mM NaCl, 0.1% BSA). […] Percent inhibition of TF-VIIa activity is calculated from OD405 nm value from the experimental and control sample.
(§1) Recombinant human VIIa was purchased from American Diagnostica, Greenwich CT and chromogenic substrate N-methylsulfonyl-D-phe-gly-arg-p-nitroaniline was prepared by American Peptide Company, Inc., Sunnyvale, Calif. Factor Xa was obtained from Enzyme Research Laboratories, South Bend Ind., thrombin from Calbiochem, La Jolla, Calif., and trypsin and L-BAPNA from Sigma, St. Louis Mo.

[3] = target: T3, Human thrombin (Homo sapiens, UniProt P00734); test: Thrombin assay (chromogenic substrate); settings: reported only as less than or greater than 30 uM; read-out: Thrombin (II) IC50
T3 construct: converts prothrombin (II) to thrombin (IIa); purchased Calbiochem, La Jolla, Calif
Procedure: Percent inhibition of thrombin activity is calculated from OD405 nm value from the experimental and control sample.
as §1

T2 sequence (P08709 213-466 limits assumed): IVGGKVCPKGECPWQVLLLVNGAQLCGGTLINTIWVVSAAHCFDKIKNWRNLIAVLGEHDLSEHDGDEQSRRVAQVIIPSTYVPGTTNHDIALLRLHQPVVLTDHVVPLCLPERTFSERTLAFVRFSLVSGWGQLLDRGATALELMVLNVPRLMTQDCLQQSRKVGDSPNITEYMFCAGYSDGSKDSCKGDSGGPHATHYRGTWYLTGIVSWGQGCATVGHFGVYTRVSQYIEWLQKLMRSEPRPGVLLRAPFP
T2 sequence (P08709 61-212 limits assumed): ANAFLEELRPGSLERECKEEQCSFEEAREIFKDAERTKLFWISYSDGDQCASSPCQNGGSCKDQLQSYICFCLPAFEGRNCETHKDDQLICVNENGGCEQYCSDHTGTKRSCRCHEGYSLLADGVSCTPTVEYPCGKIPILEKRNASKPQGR
T2 sequence (P13726 33-251 partner limits assumed): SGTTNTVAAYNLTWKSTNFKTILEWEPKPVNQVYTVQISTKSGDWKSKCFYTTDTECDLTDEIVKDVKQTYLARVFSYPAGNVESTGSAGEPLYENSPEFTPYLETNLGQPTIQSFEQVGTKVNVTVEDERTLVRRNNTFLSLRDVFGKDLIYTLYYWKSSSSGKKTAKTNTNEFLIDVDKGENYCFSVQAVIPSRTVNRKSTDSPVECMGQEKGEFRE
T1 sequence (P00742 235-488 limits assumed): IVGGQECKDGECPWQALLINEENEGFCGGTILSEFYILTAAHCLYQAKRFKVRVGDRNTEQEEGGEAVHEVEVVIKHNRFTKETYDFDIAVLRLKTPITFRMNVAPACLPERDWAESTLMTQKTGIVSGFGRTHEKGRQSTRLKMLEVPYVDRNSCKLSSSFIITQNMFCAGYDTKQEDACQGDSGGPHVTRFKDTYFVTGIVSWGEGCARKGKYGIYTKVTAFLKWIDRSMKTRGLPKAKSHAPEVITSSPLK
T1 sequence (P00742 41-179 limits assumed): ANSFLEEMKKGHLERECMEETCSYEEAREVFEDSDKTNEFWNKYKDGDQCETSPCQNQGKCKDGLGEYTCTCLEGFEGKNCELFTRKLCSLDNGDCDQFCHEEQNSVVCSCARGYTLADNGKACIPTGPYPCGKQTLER

IC50 [1] [µM]	IC50 [2] [µM]	IC50 [3] [µM]	Structure (SMILES)
> 30	< 0.1	> 30	COC(=O)c1cc(N)cc(-c2ncc(NC(C)C)c(=O)n2CC(=O)NCc2ccc(C(=N)N)cc2)c1 [Example 1]
> 30	< 0.1	> 30	CC(C)Nc1cnc(-c2cc(N)cc(C(=O)O)c2)n(CC(=O)NCc2ccc(C(=N)N)cc2)c1=O [Example 2]
> 30	< 0.1	< 30	CC(C)CNC(=O)c1cc(N)cc(-c2cnc(NC(C)C)c(=O)n2CC(=O)NCc2ccc(C(=N)N)cc2)c1 [Example 5]
> 30	< 0.1	> 30	CC(C)Nc1ncc(-c2cc(N)cc(C(=O)NCc3cccc(F)c3)c2)n(CC(=O)NCc2ccc(C(=N)N)cc2)c1=O [Example 8]
> 30	< 0.1	< 30	CC(C)Nc1ncc(-c2cc(N)cc(C(=O)NC3CCCCCC3)c2)n(CC(=O)NCc2ccc(C(=N)N)cc2)c1=O [Example 9]
< 30	< 0.1	< 30	CC(C)Nc1ncc(-c2cc(N)cc(C(=O)NC3CCCC3)c2)n(CC(=O)NCc2ccc(C(=N)N)cc2)c1=O [Example 11]
> 30	< 0.1	< 30	CC(C)Nc1ncc(-c2cc(N)cc(C(=O)NC(C)(C)c3ccccc3)c2)n(CC(=O)NCc2ccc(C(=N)N)cc2)c1=O [Example 13]
> 30	> 0.1	> 30	COC(=O)c1cc(N)cc(-c2cnc(NC(C)C)c(=O)n2CC(=O)NCc2c(F)c(O)c(C(=N)N)c(F)c2F)c1 [Example 20]
> 30	< 0.1	> 30	COC(=O)c1cc(N)cc(-c2cnc(NC(C)C)c(=O)n2CC(=O)NCc2ccc(C(=N)N)cc2)c1 [Example 21, Methyl 3-amino-5-[1-[2-({4-[amino(imino)methyl]benzyl}amino)-2-oxoethyl]-5-(isopropylamino)-6-oxo-1,6-dihydropyrazin-2-yl]benzoate Trifluoroacetate]
> 30	> 0.1	> 30	COC(=O)Cc1cc(N)c(OC)c(-c2cnc(NC(C)C)c(=O)n2CC(=O)NCc2ccc(C(=N)N)cc2)c1 [Example 22, Methyl {3-amino-5-[1-[2-({4-[amino(imino)methyl]benzyl}amino)-2-oxoethyl]-5-(isopropylamino)-6-oxo-1,6-dihydropyrazin-2-yl]-4-methoxyphenyl}acetate]
> 30	> 0.1	> 30	COc1c(N)cc(CC(=O)O)cc1-c1cnc(NC(C)C)c(=O)n1CC(=O)NCc1ccc(C(=N)N)cc1 [Example 23, {3-Amino-5-[1-[2-({4-[amino(imino)methyl]benzyl}amino)-2-oxoethyl]-5-(isopropylamino)-6-oxo-1,6-dihydropyrazin-2-yl]-4-methoxyphenyl}acetic Acid]
> 30	< 0.1	< 30	CC(C)Nc1ncc(-c2cc(N)cc(C(=O)NCc3ccccc3)c2)n(CC(=O)NCc2ccc(C(=N)N)cc2)c1=O [Example 25]
> 30	< 0.1	> 30	COCCNC(=O)c1cc(N)cc(-c2cnc(NC(C)C)c(=O)n2CC(=O)NCc2ccc(C(=N)N)cc2)c1 [Example 26, 3-amino-5-[1-[2-({4-[amino(imino)methyl]benzyl}amino)-2-oxoethyl]-5-(isopropylamino)-6-oxo-1,6-dihydropyrazin-2-yl]-N-(2-methoxyethyl)benzamide]
> 30	< 0.1	> 30	CC(C)CNC(=O)c1cc(N)cc(-c2cnc(NC(C)C)c(=O)n2CC(=O)NCc2ccc(C(=N)N)cc2)c1 [Example 27]
> 30	> 0.1	> 30	CC(C)Nc1ncc(-c2cc(N)cc(C(=O)NCCO)c2)n(CC(=O)NCc2ccc(C(=N)N)cc2)c1=O [Example 30]
> 30	> 0.1	> 30	CC(C)Nc1nc(Cl)c(-c2cc(N)ccc2SCc2ccccc2)n(CC(=O)NCc2ccc(C(=N)N)cc2)c1=O [Example 31]
> 30	> 0.1	> 30	CC(C)Nc1ncc(-c2cc(N)cc(C(=O)NCC(=O)O)c2)n(CC(=O)NCc2ccc(C(=N)N)cc2)c1=O [Example 32]
> 30	< 0.1	> 30	CC(C)Nc1ncc(-c2cc(N)cc(C(=O)NCCc3ccc(F)cc3)c2)n(CC(=O)NCc2ccc(C(=N)N)cc2)c1=O [Example 33]
> 30	> 0.1	> 30	CNc1ncc(-c2cc(N)cc(C(=O)OC)c2)n(CC(=O)NCc2ccc(C(=N)N)cc2)c1=O [Example 36]

IC50 [1] [µM]	IC50 [2] [µM]	IC50 [3] [µM]	Structure (SMILES)
> 30	> 0.1	> 30	CNc1ncc(-c2cc(N)cc(C(=O)O)c2)n(CC(=O)NCc2ccc(C(=N)N)cc2)c1=O [Example 37]
> 30	< 0.1		CNC(=O)c1cc(N)cc(-c2cnc(NC(C)C)c(=O)n2CC(=O)NCc2ccc(C(=N)N)cc2)c1 [Example 38]
> 30	< 0.1		COCCNC(=O)c1cc(N)cc(-c2cnc(NC(C)C)c(=O)n2CC(=O)NCc2ccc(C(=N)N)cc2)c1 [Example 39]
> 30	< 0.1		CC(C)Nc1ncc(-c2cc(N)cc(C(=O)NCCN3CCOCC3)c2)n(CC(=O)NCc2ccc(C(=N)N)cc2)c1=O [Example 40]
> 30	< 0.1		CC(C)Nc1ncc(-c2cc(N)cc(C(=O)NCCN3CCCC3)c2)n(CC(=O)NCc2ccc(C(=N)N)cc2)c1=O [Example 41]
> 30	< 0.1		CONC(=O)c1cc(N)cc(-c2cnc(NC(C)C)c(=O)n2CC(=O)NCc2ccc(C(=N)N)cc2)c1 [Example 42]
> 30	< 0.1		CC(C)Nc1ncc(-c2cc(N)cc(C(=O)NC(C)(CO)CO)c2)n(CC(=O)NCc2ccc(C(=N)N)cc2)c1=O [Example 43]
> 30	< 0.1		CCOC(=O)c1cc(N)cc(-c2cnc(NC(C)C)c(=O)n2CC(=O)NCc2ccc(C(=N)N)cc2)c1 [Example 44]
> 30	< 0.1		CC(C)Nc1ncc(-c2cc(N)cc(C(=O)NC(C)(C)CCO)c2)n(CC(=O)NCc2ccc(C(=N)N)cc2)c1=O [Example 45]
> 30	< 0.1		CC(C)Nc1ncc(-c2cc(N)cc(C(N)=O)c2)n(CC(=O)NCc2ccc(C(=N)N)cc2)c1=O [Example 47]
> 30	> 0.1	> 30	COC(=O)c1cc(N)cc(-c2cnc(NC(C)C)c(=O)n2CC(=O)NCc2c(F)c(F)c(C(=N)N)c(F)c2F)c1 [Example 48]
	> 0.1		CCCCN(CCCC)c1cc(N)cc(-c2cnc(NC(C)C)c(=O)n2CC(=O)NCc2ccc(C(=N)N)cc2)c1 [Example 149]
	< 0.1		CC(C)Nc1ncc(-c2cc(N)cc(NC(=O)C3CCNCC3)c2)n(CC(=O)NCc2ccc(C(=N)N)cc2)c1=O [Example 150]
	< 0.1		CC(C)Nc1ncc(-c2cc(N)cc(NC(=O)C3CCCNC3)c2)n(CC(=O)NCc2ccc(C(=N)N)cc2)c1=O (stereo not drawn) [Example 151]
	> 0.1		CC(C)Nc1ccc(-c2cc(N)cc(N)c2)n(CC(=O)NCc2ccc(C(=N)N)cc2)c1=O [Example 163]
	> 0.1	> 30	N=C(N)c1c(O)c(F)c(CNC(=O)Cn2c(-c3cc(N)cc(C(F)(F)F)c3)cnc(NC3CC3)c2=O)c(F)c1F [Example 243]
	> 0.1	> 30	CC[C@@H](C)NC(=O)c1cc(N)cc(-c2cnc(NC(C)C)c(=O)n2CC(=O)NCc2c(O)cc(C(=N)N)cc2OCC(=O)O)c1 [Example 244]
	< 0.1	< 30	CC[C@@H](C)NC(=O)c1cc(N)cc(-c2cnc(N[C@@H](C)CO)c(=O)n2CC(=O)NCc2ccc(C(=N)N)cc2)c1 [Example 248]
	> 0.1	> 30	CC[C@@H](C)NC(=O)c1cc(N)cc(-c2cnc(NC(C)C)c(=O)n2CC(=O)NCc2c(O)cc(C(=N)N)cc2OCc2cccnc2)c1 [Example 255]

Structure (SMILES)	IC50 [1] [µM]	IC50 [2] [µM]	IC50 [3] [µM]
CC(C)Nc1ncc(-c2cc(N)cc(C(=O)NC[Si](C)(C)C)c2)n(CC(=O)NCc2ccc(C(=N)N)cc2)c1=O [Example 12]	> 30	< 0.1	> 30
